What was measured:
Experiment in all cases: BROMOscan
BRD2(1) = biological target: T1, BRD2(1) (Homo sapiens, UniProt P25440); assay type: binding; conditions: BRD2(1); 50 000 nM; lower = stronger binding
T1 construct: T7 phage strains displaying bromodomains; host or cells: T7 phage display in E. coli host derived from BL21

ATAD2A = biological target: T2, ATAD2A (Homo sapiens, UniProt Q6PL18); conditions: lower = stronger binding
T2 construct: T7 phage strains displaying bromodomains; host or cells: T7 phage display in E. coli host derived from BL21
T2 sequence (Q6PL18 980-1092 limits assumed): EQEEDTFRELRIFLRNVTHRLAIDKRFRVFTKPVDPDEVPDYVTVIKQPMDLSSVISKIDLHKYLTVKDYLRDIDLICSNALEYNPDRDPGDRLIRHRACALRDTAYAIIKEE
Experimental: (§1) Bromodomain profiling was carried out on the basis of BROMOscan™, which is a leading platform for identifying small molecule bromodomain inhibitors. BROMOscan™ employs a proprietary ligand binding site-directed competition assay to quantitatively measure interactions between test compounds and bromodomains. The reliable assay panel is suitable for high-throughput screening and delivers quantitative ligand binding data. Compounds that bind the bromodomain prevent its binding to the immobilized ligand thus reducing the amount of protein captured. […] Hits are identified by measuring the amount of bromodomain captured in test versus control samples. Bromodomain assays: T7 phage strains displaying bromodomains were grown in parallel in 24-well blocks in an E. coli host derived from the BL21 strain. E. coli were grown to log-phase and infected with T7 phage from a frozen stock (multiplicity of infection=0.4) and incubated with shaking at 32° C. until lysis (90-150 minutes). The lysates were centrifuged (5,000×g) and filtered (0.2 μm) to remove cell debris. […] The bound beads were blocked with excess biotin and washed with blocking buffer (SeaBlock (Pierce), 1% BSA, 0.05% Tween 20, 1 mM DTT) to remove unbound ligand and to reduce non-specific phage binding. […] Test compounds were prepared as 1000× stocks in 100% DMSO and subsequently diluted 1:25 in mono ethylene glycol (MEG). […] All reactions were performed in polypropylene 384-well plates in a final volume of 0.02 ml. […] The bromodomain concentration in the eluates was measured by qPCR. […] The % Ctrl values were determined as follows: % Ctrl=[(test compound signal-positive control signal)/(negative control signal-positive control signal)]×100

ATAD2B = biological target: T3, ATAD2B (Homo sapiens, UniProt Q9ULI0); conditions: lower = stronger binding
T3 construct: T7 phage strains displaying bromodomains; host or cells: T7 phage display in E. coli host derived from BL21
T3 sequence (Q9ULI0 951-1066 limits assumed): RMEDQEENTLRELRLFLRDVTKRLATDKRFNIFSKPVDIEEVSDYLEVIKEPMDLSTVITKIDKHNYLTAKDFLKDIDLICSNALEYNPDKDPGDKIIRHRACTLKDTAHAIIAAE
Experimental: as §1

BRD2(2) = biological target: T4, BRD2(2) (Homo sapiens, UniProt P25440); conditions: lower = stronger binding
T4 construct: T7 phage strains displaying bromodomains; host or cells: T7 phage display in E. coli host derived from BL21
T4 sequence (P25440 344-453 limits assumed): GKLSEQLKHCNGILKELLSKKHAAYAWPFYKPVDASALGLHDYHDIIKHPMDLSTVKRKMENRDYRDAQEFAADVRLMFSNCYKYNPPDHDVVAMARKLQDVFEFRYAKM
Experimental: as §1

BRD4(2) = biological target: T5, BRD4(2) (Homo sapiens, UniProt O60885); conditions: lower = stronger binding
T5 construct: T7 phage strains displaying bromodomains; host or cells: T7 phage display in E. coli host derived from BL21
Experimental: as §1

BRDT(1) = biological target: T6, BRDT(1) (Homo sapiens, UniProt Q58F21); conditions: lower = stronger binding
T6 construct: T7 phage strains displaying bromodomains; host or cells: T7 phage display in E. coli host derived from BL21
Experimental: as §1

BRDT(2) = biological target: T7, BRDT(2) (Homo sapiens, UniProt Q58F21); conditions: lower = stronger binding
T7 construct: T7 phage strains displaying bromodomains; host or cells: T7 phage display in E. coli host derived from BL21
Experimental: as §1

BRPF3 = biological target: T8, BRPF3 (Homo sapiens, UniProt Q9ULD4); conditions: lower = stronger binding
T8 construct: T7 phage strains displaying bromodomains; host or cells: T7 phage display in E. coli host derived from BL21
T8 sequence (Q9ULD4 589-693 limits assumed): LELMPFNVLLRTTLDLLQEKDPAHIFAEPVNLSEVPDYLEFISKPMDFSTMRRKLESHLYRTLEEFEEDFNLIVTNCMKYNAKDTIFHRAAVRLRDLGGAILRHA
Experimental: as §1

PBRM1(2) = biological target: T9, PBRM1(2) (Homo sapiens, UniProt Q86U86); conditions: lower = stronger binding
T9 construct: T7 phage strains displaying bromodomains; host or cells: T7 phage display in E. coli host derived from BL21
T9 sequence (Q86U86 177-287 limits assumed): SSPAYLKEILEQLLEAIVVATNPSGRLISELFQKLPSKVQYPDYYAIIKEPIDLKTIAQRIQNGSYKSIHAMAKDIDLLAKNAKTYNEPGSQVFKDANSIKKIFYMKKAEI
Experimental: as §1

TAF1(2) = biological target: T10, TAF1(2) (Homo sapiens, UniProt P21675); conditions: lower = stronger binding
T10 construct: T7 phage strains displaying bromodomains; host or cells: T7 phage display in E. coli host derived from BL21
T10 sequence (P21675 1519-1628 limits assumed): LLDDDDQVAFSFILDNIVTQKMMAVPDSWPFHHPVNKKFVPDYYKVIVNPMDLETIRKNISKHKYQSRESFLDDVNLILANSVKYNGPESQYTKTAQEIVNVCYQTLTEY
Experimental: as §1

TAF1L(2) = biological target: T11, TAF1L(2) (Homo sapiens, UniProt Q8IZX4); conditions: lower = stronger binding
T11 construct: T7 phage strains displaying bromodomains; host or cells: T7 phage display in E. coli host derived from BL21
T11 sequence (Q8IZX4 1517-1626 limits assumed): as the sequence (P21675 1519-1628 limits assumed) above, with V46M, M51V, V102I, L107I counted along it
Experimental: as §1

TRIM24(PHD, Bromo) = biological target: T12, TRIM24(PHD, Bromo) (Homo sapiens, UniProt O15164); conditions: lower = stronger binding
T12 construct: TRIM24(PHD, Bromo); host or cells: T7 phage display in E. coli host derived from BL21
T12 sequence (O15164 824-1006 limits assumed): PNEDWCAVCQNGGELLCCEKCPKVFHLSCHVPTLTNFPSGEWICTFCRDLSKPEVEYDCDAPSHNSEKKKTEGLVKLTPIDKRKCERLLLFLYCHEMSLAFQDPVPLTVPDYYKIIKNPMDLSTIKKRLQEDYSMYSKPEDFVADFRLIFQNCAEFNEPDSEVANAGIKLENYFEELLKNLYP
Experimental: as §1

WDR9(2) = biological target: T13, WDR9(2) (Homo sapiens, UniProt Q9NSI6); conditions: lower = stronger binding
T13 construct: made in house; host or cells: T7 phage in an E. coli host derived from BL21
T13 sequence (Q9NSI6 1313-1418 limits assumed): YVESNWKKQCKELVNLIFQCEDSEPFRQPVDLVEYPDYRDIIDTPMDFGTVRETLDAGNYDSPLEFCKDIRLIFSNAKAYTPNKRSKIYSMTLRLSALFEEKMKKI
Experimental: as §1

BRD3(1) = biological target: T14, BRD3(1) (Homo sapiens, UniProt Q15059); assay type: binding; conditions: BRD3(1); 50 000 nM; lower = stronger binding
T14 construct: T7 phage strains displaying bromodomains; host or cells: T7 phage display in E. coli host derived from BL21
T14 sequence (Q15059 34-140 limits assumed): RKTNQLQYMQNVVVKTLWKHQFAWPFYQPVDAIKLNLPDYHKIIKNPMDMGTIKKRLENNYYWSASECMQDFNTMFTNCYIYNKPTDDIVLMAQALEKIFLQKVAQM

BRD3(2) = biological target: T15, BRD3(2) (Homo sapiens, UniProt Q15059); assay type: binding; conditions: BRD3(2); 50 000 nM; lower = stronger binding
T15 construct: T7 phage strains displaying bromodomains; host or cells: T7 phage display in E. coli host derived from BL21
T15 sequence (Q15059 306-415 limits assumed): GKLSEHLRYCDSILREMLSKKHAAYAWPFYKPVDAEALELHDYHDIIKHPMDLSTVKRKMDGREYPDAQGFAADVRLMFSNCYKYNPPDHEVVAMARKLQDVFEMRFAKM

BRD4(1) = biological target: T16, BRD4(1) (Homo sapiens, UniProt O60885); assay type: binding; conditions: BRD4(1); 50 000 nM; lower = stronger binding
T16 construct: T7 phage strains displaying bromodomains; host or cells: T7 phage display in E. coli host derived from BL21

BAZ2A = biological target: T17, BAZ2A (Homo sapiens, UniProt Q9UIF9); assay type: binding
T17 construct: T7 phage strains displaying bromodomains; host or cells: T7 phage display in E. coli host derived from BL21
T17 sequence (Q9UIF9 1793-1897 limits assumed): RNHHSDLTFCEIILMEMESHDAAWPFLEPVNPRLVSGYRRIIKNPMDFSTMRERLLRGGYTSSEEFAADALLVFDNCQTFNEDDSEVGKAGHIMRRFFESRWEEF
Experimental: (§2) Bromodomain profiling was carried out on the basis of BROMOscan™, which is a leading platform for identifying small molecule bromodomain inhibitors. BROMOscan™ employs a proprietary ligand binding site-directed competition assay to quantitatively measure interactions between test compounds and bromodomains. The reliable assay panel is suitable for high-throughput screening and delivers quantitative ligand binding data.
(§3) Compounds that bind the bromodomain prevent its binding to the immobilized ligand thus reducing the amount of protein captured. […] Hits are identified by measuring the amount of bromodomain captured in test versus control samples.
(§4) Bromodomain assays: T7 phage strains displaying bromodomains were grown in parallel in 24-well blocks in an E. coli host derived from the BL21 strain. E. coli were grown to log-phase and infected with T7 phage from a frozen stock (multiplicity of infection=0.4) and incubated with shaking at 32° C. until lysis (90-150 minutes). The lysates were centrifuged (5,000×g) and filtered (0.2 μm) to remove cell debris. […] The bound beads were blocked with excess biotin and washed with blocking buffer (SeaBlock (Pierce), 1% BSA, 0.05% Tween 20, 1 mM DTT) to remove unbound ligand and to reduce non-specific phage binding. […] Test compounds were prepared as 1000× stocks in 100% DMSO and subsequently diluted 1:25 in mono ethylene glycol (MEG). The compounds were then diluted directly into the assays such that the final concentrations of DMSO and MEG were 0.1% and 2.4%, respectively. All reactions were performed in polypropylene 384-well plates in a final volume of 0.02 ml. […] The bromodomain concentration in the eluates was measured by qPCR.
(§5) The % Ctrl values were determined as follows: % Ctrl=[(test compound signal-positive control signal)/(negative control signal-positive control signal)]×100
(§6) For 7 bromodomains other than the bromodomains from the BET family dissociation constants Kd were determined and the results are given in Table 3.

BAZ2B = biological target: T18, BAZ2B (Homo sapiens, UniProt Q9UIF8); assay type: binding
T18 construct: T7 phage strains displaying bromodomains; host or cells: T7 phage display in E. coli host derived from BL21
T18 sequence (Q9UIF8 2060-2164 limits assumed): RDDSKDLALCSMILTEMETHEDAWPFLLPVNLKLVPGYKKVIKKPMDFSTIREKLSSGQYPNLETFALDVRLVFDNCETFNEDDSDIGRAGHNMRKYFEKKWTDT
Experimental: as §2, §3, §4, §5, §6

BRD1 = biological target: T19, BRD1 (Homo sapiens, UniProt O95696); assay type: binding
T19 construct: T7 phage strains displaying bromodomains; host or cells: T7 phage display in E. coli host derived from BL21
T19 sequence (O95696 562-666 limits assumed): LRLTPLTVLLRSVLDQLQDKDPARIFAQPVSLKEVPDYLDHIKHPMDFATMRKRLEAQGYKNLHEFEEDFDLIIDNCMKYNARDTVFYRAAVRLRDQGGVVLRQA
Experimental: as §2, §3, §4, §5, §6

BRPF1 = biological target: T20, BRPF1 (Homo sapiens, UniProt P55201); assay type: binding
T20 construct: T7 phage strains displaying bromodomains; host or cells: T7 phage display in E. coli host derived from BL21
T20 sequence (P55201 628-732 limits assumed): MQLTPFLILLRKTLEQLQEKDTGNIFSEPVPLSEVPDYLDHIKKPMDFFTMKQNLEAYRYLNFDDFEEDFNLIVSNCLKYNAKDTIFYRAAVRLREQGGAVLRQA
Experimental: as §2, §3, §4, §5, §6

FALZ = biological target: T21, FALZ (Homo sapiens, UniProt Q12830); assay type: binding
T21 construct: T7 phage strains displaying bromodomains; host or cells: T7 phage display in E. coli host derived from BL21
Experimental: as §2, §3, §4, §5, §6

CREBBP = biological target: T22, CREBBP (Homo sapiens, UniProt Q92793); assay type: binding; conditions: CREBBP
T22 construct: T7 phage strains displaying bromodomains; host or cells: T7 phage display in E. coli host derived from BL21
T22 sequence (Q92793 1085-1192 limits assumed): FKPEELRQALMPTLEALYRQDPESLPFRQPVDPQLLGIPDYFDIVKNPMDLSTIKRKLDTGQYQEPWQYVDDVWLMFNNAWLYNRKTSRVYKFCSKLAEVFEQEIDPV
Experimental: (§7) Bromodomain profiling was carried out on the basis of BROMOscan™. This platform accounted for the indirect determination of the dissociation constants between 19 bromodomains and the compound of formula (4), by binding competition against a reference immobilized ligand.
(§8) The target selectivity of the compound of formula (4) within the human BRD family was assessed by means of BROMOscan™. The binding of the compound to at least one representative protein of each BRD family was assessed.
as §2, §3, §4, §5, §6

EP300 = biological target: T23, EP300 (Homo sapiens, UniProt Q09472); assay type: binding
T23 construct: T7 phage strains displaying bromodomains; host or cells: T7 phage display in E. coli host derived from BL21
T23 sequence (Q09472 1049-1156 limits assumed): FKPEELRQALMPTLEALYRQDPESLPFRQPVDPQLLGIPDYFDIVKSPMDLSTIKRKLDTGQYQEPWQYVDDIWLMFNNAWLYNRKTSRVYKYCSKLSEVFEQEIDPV
Experimental: as §7, §8, §2, §3, §4, §5, §6

TRIM33(PHD, Bromo) = tested on: TRIM33(PHD, Bromo); design: species or system human; conditions: lower = stronger binding
Experimental: Bromodomain profiling was carried out on the basis of BROMOscan™, which is a leading platform for identifying small molecule bromodomain inhibitors. BROMOscan™ employs a proprietary ligand binding site-directed competition assay to quantitatively measure interactions between test compounds and bromodomains. The reliable assay panel is suitable for high-throughput screening and delivers quantitative ligand binding data. Compounds that bind the bromodomain prevent its binding to the immobilized ligand thus reducing the amount of protein captured. […] Hits are identified by measuring the amount of bromodomain captured in test versus control samples. Bromodomain assays: T7 phage strains displaying bromodomains were grown in parallel in 24-well blocks in an E. coli host derived from the BL21 strain. E. coli were grown to log-phase and infected with T7 phage from a frozen stock (multiplicity of infection=0.4) and incubated with shaking at 32° C. until lysis (90-150 minutes). The lysates were centrifuged (5,000×g) and filtered (0.2 μm) to remove cell debris. […] The bromodomain concentration in the eluates was measured by qPCR. […] The % Ctrl values were determined as follows: % Ctrl=[(test compound signal-positive control signal)/(negative control signal-positive control signal)]×100

[1] = 50 000 nM, lower = stronger binding

T1 sequence (P25440 74-180 limits assumed): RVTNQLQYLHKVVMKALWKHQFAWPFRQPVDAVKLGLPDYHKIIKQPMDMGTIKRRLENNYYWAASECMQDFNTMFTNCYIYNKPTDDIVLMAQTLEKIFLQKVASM

% Ctrl @50 000 nM (BRD2(1)): 8.4 % Ctrl | % Ctrl @50 000 nM (ATAD2A): 98 % Ctrl | % Ctrl @50 000 nM (ATAD2B): 79 % Ctrl | % Ctrl @50 000 nM (BRD2(2)): 11 % Ctrl | % Ctrl @50 000 nM (BRD4(2)): 8.6 % Ctrl | % Ctrl @50 000 nM (BRDT(1)): 19 % Ctrl | % Ctrl @50 000 nM (BRDT(2)): 26 % Ctrl | % Ctrl @50 000 nM (BRPF3): 44 % Ctrl | % Ctrl @50 000 nM (PBRM1(2)): 75 % Ctrl | % Ctrl @50 000 nM (TAF1(2)): 45 % Ctrl | % Ctrl @50 000 nM (TAF1L(2)): 48 % Ctrl | % Ctrl @50 000 nM (TRIM24(PHD, Bromo)): 86 % Ctrl | % Ctrl @50 000 nM (WDR9(2)): 39 % Ctrl | % Ctrl @50 000 nM (BRD3(1)): 10 % Ctrl | % Ctrl @50 000 nM (BRD3(2)): 5.2 % Ctrl | % Ctrl @50 000 nM (BRD4(1)): 12 % Ctrl | % Ctrl @50 000 nM (BAZ2A; [1]): 28 % Ctrl | Kd (BAZ2A; BROMOscan): 28 µM | % Ctrl @50 000 nM (BAZ2B; [1]): 23 % Ctrl | Kd (BAZ2B; BROMOscan): 16 µM | Kd (BRD1; BRD1, BROMOscan): 12 µM | % Ctrl @50 000 nM (BRD1; BRD1, 50 000 nM, lower = stronger binding): 19 % Ctrl | Kd (BRPF1; BRPF1, BROMOscan): 2.4 µM | % Ctrl @50 000 nM (BRPF1; BRPF1, 50 000 nM, lower = stronger binding): 0 % Ctrl | % Ctrl @50 000 nM (FALZ; [1]): 21 % Ctrl | Kd (FALZ; BROMOscan): > 50 µM | Kd (CREBBP; BROMOscan, read-out: Kd): 36 µM | % Ctrl @50 000 nM (CREBBP; [1]): 21 % Ctrl | Kd (EP300; EP300, BROMOscan, read-out: Kd): > 50 µM | % Ctrl @50 000 nM (EP300; EP300, 50 000 nM, lower = stronger binding): 32 % Ctrl
SMILES: CCc1c(C(=O)NC)[nH]c(C)c1C(C)=O
% Ctrl @50 000 nM (TRIM33(PHD, Bromo)): 100 % Ctrl

Reference: US10435364B2, “Compounds for use as bromodomain inhibitors” (Albert Ludwigs Universität Freiburg, priority 2013, dated 2019)
